# Laboratory results published in patent publication US10150755B2, “ASK1 inhibitor compounds and uses thereof” (Seal Rock Therapeutics, Inc., priority 2017, dated 2018).
# How the values were obtained:
# ASK1 = ASK1 (Homo sapiens (Human), UniProt Q99683); assay: ASK1 Kinase Assay (Promega ASK1 Kinase Enzyme System, ADP-Glo); format: biochemical; settings: enzyme 50 nM, ATP 10 μM
# Procedure: The ASK1 enzymatic assay was run following Promega ASK1 Kinase Enzyme System (Cat #V3881). The kit provides the protocol, enzymes and all reagents necessary to run an assay. Firstly, the compounds, enzyme, substrate and ATP were diluted in provided assay buffer. The final concentration of the enzyme was 50 nM, substrate (Myelin basic protein) 1 μg/ml and ATP 10 μM. The compound and the enzyme were pre-incubated in a 384 well white solid bottom plate (Greiner, Cat#784075) for 10 minutes. After incubation, the substrate and ATP were added and incubated for further 60 minutes. After 60 minutes, ADP-Glo™ was added and plate was incubated for another 40 minutes. After 40 minutes, Kinase Detection Reagent was added and the plate was incubated for 45 minutes. After 45 minutes, plate was read on Perkin Elmer EnVision using luminescence read (0.5 seconds/well).
# [1] = test system: LPS-induced TNFalpha in Human PBMCs; assay: Inhibition of LPS-induced TNFalpha in Human PBMCs; format: cell-based; settings: PBMC, 100 ng/ml LPS, 6 hr, read-out: TNFa Inhibition IC50
# Procedure: Cryopreserved human PBMCs were obtained from AllCells (cat# PB003F). After thawing/dilution protocols using RPMI medium supplemented with 5% FBS (heat inactivated), 100 ul/well of 1×10^6 cells/ml were plated into 96 well tissue culture plates (Corning). Cells were then pre-incubated for 1 hr at 37° C. in humidified 5% CO2 and 95% air with test compounds diluted in DMSO (final DMSO concentration 0.3%). Each compound was tested at 10 concentrations in duplicate wells. After the pre-incubation, 100 ng/ml LPS (E. Coli; Sigma) in RPMI media with 5% FBS was added for a 6 hr incubation at 37° C. in humidified 5% CO2 and 95% air. Controls on each plate included cells and LPS only, cells and media only (no LPS), and media only. After the 6 hr incubation, plates were centrifuged and the supernatants transferred to a new plate and frozen for subsequent TNFalpha analysis. Human TNFalpha was analyzed by ELISA according to the manufacturer's instructions (BD Sciences, BD OptEIA™ Cat#550610) and analyzed on a SpectraMax M series (Molecular Devices) microplate reader at OD 450 nm. IC50s were calculated using XLFit4 curve fitting software (IDBS) and a 4-parameter one-site sigmoid dose response fit.
# Sequence of ASK1 (Q99683 649-946 limits assumed): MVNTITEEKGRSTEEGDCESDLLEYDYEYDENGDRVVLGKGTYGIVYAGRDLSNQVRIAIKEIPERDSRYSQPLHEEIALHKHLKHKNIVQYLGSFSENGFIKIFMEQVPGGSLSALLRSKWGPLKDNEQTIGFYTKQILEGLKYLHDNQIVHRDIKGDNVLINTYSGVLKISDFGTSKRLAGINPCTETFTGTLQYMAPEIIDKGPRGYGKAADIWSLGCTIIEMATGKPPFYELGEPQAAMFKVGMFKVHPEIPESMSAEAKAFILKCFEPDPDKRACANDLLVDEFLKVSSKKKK
IC50 (ASK1),SMILES,IC50 [1]
< 200 nM,"CN(C)C(=O)c1ccc2c(c1)CN(c1cccc(-c3nncn3C3CC3)n1)C2=O [Compound 2, 2-(6-(4-Cyclopropyl-4H-1,2,4-triazol-3-yl)pyridin-2-yl)-N,N-dimethyl-1-oxoisoindoline-5-carboxamide]",2000 to 10000 nM
< 200 nM,"O=C(c1ccc2c(c1)CN(c1cccc(-c3nncn3C3CC3)n1)C2=O)N1CCOCC1 [Compound 7, 2-(6-(4-cyclopropyl-4H-1,2,4-triazol-3-yl)pyridin-2-yl)-5-(morpholine-4-carbonyl)isoindolin-1-one]",> 10 nM
< 200 nM,"CN1CCN(C(=O)c2ccc3c(c2)CN(c2cccc(-c4nncn4C4CC4)n2)C3=O)CC1 [Compound 10, 2-(6-(4-cyclopropyl-4H-1,2,4-triazol-3-yl)pyridin-2-yl)-5-(4-methylpiperazine-1-carbonyl)isoindolin-1-one]",2000 to 10000 nM
< 200 nM,"O=C(c1ccc2c(c1)CN(c1cccc(-c3nncn3C3CC3)n1)C2=O)N1CCCCC1 [Compound 11, 2-(6-(4-cyclopropyl-4H-1,2,4-triazol-3-yl)pyridin-2-yl)-5-(piperidine-1-carbonyl)isoindolin-1-one]",2000 to 10000 nM
< 200 nM,"O=C(c1ccc2c(c1)CN(c1cccc(-c3nncn3C3CC3)n1)C2=O)N1CCC(O)CC1 [Compound 12, 2-(6-(4-cyclopropyl-4H-1,2,4-triazol-3-yl)pyridin-2-yl)-5-(4-hydroxypiperidine-1-carbonyl)isoindolin-1-one]",> 10 nM
< 200 nM,"CC1(O)CCN(C(=O)c2ccc3c(c2)CN(c2cccc(-c4nncn4C4CC4)n2)C3=O)CC1 [Compound 13, 2-(6-(4-cyclopropyl-4H-1,2,4-triazol-3-yl)pyridin-2-yl)-5-(4-hydroxy-4-methylpiperidine-1-carbonyl)isoindolin-1-one]",> 10 nM
< 200 nM,"COC1CCN(C(=O)c2ccc3c(c2)CN(c2cccc(-c4nncn4C4CC4)n2)C3=O)CC1 [Compound 14, 2-(6-(4-cyclopropyl-4H-1,2,4-triazol-3-yl)pyridin-2-yl)-5-(4-methoxypiperidine-1-carbonyl)isoindolin-1-one]",2000 to 10000 nM
< 200 nM,"CN(C)C1CCN(C(=O)c2ccc3c(c2)CN(c2cccc(-c4nncn4C4CC4)n2)C3=O)CC1 [Compound 15, 2-(6-(4-cyclopropyl-4H-1,2,4-triazol-3-yl)pyridin-2-yl)-5-(4-(dimethylamino)piperidine-1-carbonyl)isoindolin-1-one]",2000 to 10000 nM
< 200 nM,"CC(=O)N1CCN(C(=O)c2ccc3c(c2)CN(c2cccc(-c4nncn4C4CC4)n2)C3=O)CC1 [Compound 16, 5-(4-acetylpiperazine-1-carbonyl)-2-(6-(4-cyclopropyl-4H-1,2,4-triazol-3-yl)pyridin-2-yl)isoindolin-1-one]",> 10 nM
< 200 nM,"CC(=O)NC1CCN(C(=O)c2ccc3c(c2)CN(c2cccc(-c4nncn4C4CC4)n2)C3=O)CC1 [Compound 17, N-(1-(2-(6-(4-cyclopropyl-4H-1,2,4-triazol-3-yl)pyridin-2-yl)-1-oxoisoindoline-5-carbonyl)piperidin-4-yl)acetamide]",> 10 nM
–,"Cc1ccncc1-c1ccc2c(c1)C(=O)N(c1cccc(-c3nncn3C3CC3)n1)C2 [Compound 41, 2-(6-(4-cyclopropyl-4H-1,2,4-triazol-3-yl)pyridin-2-yl)-6-(4-methylpyridin-3-yl)isoindolin-1-one]",< 2000 nM
< 200 nM,"O=C1c2cc(-c3cncnc3)ccc2CN1c1cccc(-c2nncn2C2CC2)n1 [Compound 43, 2-(6-(4-cyclopropyl-4H-1,2,4-triazol-3-yl)pyridin-2-yl)-6-(pyrimidin-5-yl)isooindolin-1-one]",2000 to 10000 nM
< 200 nM,"Cc1ncc(-c2ccc3c(c2)C(=O)N(c2cccc(-c4nncn4C4CC4)n2)C3)cn1 [Compound 44, 2-(6-(4-cyclopropyl-4H-1,2,4-triazol-3-yl)pyridin-2-yl)-6-(2-methylpyrimidin-5-yl)isoindolin-1-one]",2000 to 10000 nM
–,"O=C1c2cc(-c3ccc(C4CC4)nc3)ccc2CN1c1cccc(-c2nncn2C2CC2)n1 [Compound 46, 2-(6-(4-cyclopropyl-4H-1,2,4-triazol-3-yl)pyridin-2-yl)-6-(6-cyclopropylpyridin-3-yl)isoindolin-1-one]",< 2000 nM
–,"O=C1c2cc(-c3cnc(C4CC4)cn3)ccc2CN1c1cccc(-c2nncn2C2CC2)n1 [Compound 60, 2-(6-(4-cyclopropyl-4H-1,2,4-triazol-3-yl)pyridin-2-yl)-6-(5-cyclopropylpyrazin-2-yll)isoindolin-1-one]",> 10 nM
–,"COc1cc2c(cc1-c1cccnc1)C(=O)N(c1cccc(-c3nncn3C3CC3)n1)C2 [Compound 66, 2-(6-(4-cyclopropyl-4H-1,2,4-triazol-3-yl)pyridin-2-yl)-5-methoxy-6-(pyridin-3-yl)isoindolin-1-one]",< 2000 nM
< 200 nM,"CC(C)Oc1cc2c(cc1-c1cccnc1)C(=O)N(c1cccc(-c3nncn3C3CC3)n1)C2 [Compound 68, 2-(6-(4-cyclopropyl-4H-1,2,4-triazol-3-yl)pyridin-2-yl)-5-isopropoxy-6-(pyridin-3-yl)isoindolin-1-one]",< 2000 nM
< 200 nM,"O=C1c2cc(-c3cccnc3)c(OC3CCCC3)cc2CN1c1cccc(-c2nncn2C2CC2)n1 [Compound 69, 5-(Cyclopentyloxy)-2-(6-(4-cyclopropyl-4H-1,2,4-triazol-3-yl)pyridin-2-yl)-6-(pyridin-3-yl)isoindolin-1-one]",< 2000 nM
< 200 nM,"O=C(c1cc2c(cc1-c1cccnc1)C(=O)N(c1cccc(-c3nncn3C3CC3)n1)C2)N1CCCC1 [Compound 71, 2-(6-(4-cyclopropyl-4H-1,2,4-triazol-3-yl)pyridin-2-yl)-6-(pyridin-3-yl)-5-(pyrrolidine-1-carbonyl)isoindolin-1-one]",2000 to 10000 nM
